Source: patent publication US8466145B2, “Dipeptidyl peptidase IV inhibitors” (Orchid Chemicals & Pharmaceuticals Limited, priority 2009, dated 2013)

Legend:
[1] = biological target: T1, human recombinant Dipeptidyl peptidase 8 enzyme (hrDPP 8) (Homo sapiens, UniProt Q6V1X1); assay: DPP 8 assay, cleavage of H-Ala-Pro-AFC; assay type: biochemical; settings: for Selectivity (Fold) DPP 8: selectivity for DPP-IV over DPP 8
T1 construct: purchased R&D systems
Experimental: DPP 8 activity was determined by the cleavage rate of 7-amino 4-fluoromethylcoumarin (AFC) from the substrate H-Ala-Pro-AFC. In brief, the assay was conducted by adding 30 ng of human recombinant Dipeptidyl peptidase 8 enzyme (hrDPP 8, available commercially from R&D systems) in 70 μL of the assay buffer (50 mM TRIS and 5 mM EDTA, pH 7.7) to a 96 well black flat bottom microtitre plate. Test compound was added as 10 μL additions to all wells except blank and total activity wells. After incubation of test substance with enzyme for 30 minutes at room temperature, 10 μL of 100 μM substrate H-Ala-Pro-AFC was added. After mixing, the plate was left for 30 minutes at room temperature. Then the reaction was terminated by addition of 10 μL of 25% Glacial Acetic Acid. Fluorescence was measured using Spectra Max Gemini XS (Molecular Devices, USA) at an excitation filter of 400 nm and emission filter of 505 nm.
Test compound dissolved in DMSO were diluted with assay buffer at different concentrations and tested in duplicates. Percentage inhibition was calculated with respect to total activity. IC50 value was calculated using Prism Software.

[2] = biological target: T2, human recombinant Dipeptidyl peptidase 9 enzyme (hrDPP 9) (Homo sapiens, UniProt Q86TI2); assay: DPP 9 assay, cleavage of H-Gly-Pro-AMC; assay type: biochemical; settings: for Selectivity (Fold) DPP 9: selectivity for DPP-IV over DPP 9
T2 construct: purchased R&D systems
T2 sequence (Q86TI2 whole entry): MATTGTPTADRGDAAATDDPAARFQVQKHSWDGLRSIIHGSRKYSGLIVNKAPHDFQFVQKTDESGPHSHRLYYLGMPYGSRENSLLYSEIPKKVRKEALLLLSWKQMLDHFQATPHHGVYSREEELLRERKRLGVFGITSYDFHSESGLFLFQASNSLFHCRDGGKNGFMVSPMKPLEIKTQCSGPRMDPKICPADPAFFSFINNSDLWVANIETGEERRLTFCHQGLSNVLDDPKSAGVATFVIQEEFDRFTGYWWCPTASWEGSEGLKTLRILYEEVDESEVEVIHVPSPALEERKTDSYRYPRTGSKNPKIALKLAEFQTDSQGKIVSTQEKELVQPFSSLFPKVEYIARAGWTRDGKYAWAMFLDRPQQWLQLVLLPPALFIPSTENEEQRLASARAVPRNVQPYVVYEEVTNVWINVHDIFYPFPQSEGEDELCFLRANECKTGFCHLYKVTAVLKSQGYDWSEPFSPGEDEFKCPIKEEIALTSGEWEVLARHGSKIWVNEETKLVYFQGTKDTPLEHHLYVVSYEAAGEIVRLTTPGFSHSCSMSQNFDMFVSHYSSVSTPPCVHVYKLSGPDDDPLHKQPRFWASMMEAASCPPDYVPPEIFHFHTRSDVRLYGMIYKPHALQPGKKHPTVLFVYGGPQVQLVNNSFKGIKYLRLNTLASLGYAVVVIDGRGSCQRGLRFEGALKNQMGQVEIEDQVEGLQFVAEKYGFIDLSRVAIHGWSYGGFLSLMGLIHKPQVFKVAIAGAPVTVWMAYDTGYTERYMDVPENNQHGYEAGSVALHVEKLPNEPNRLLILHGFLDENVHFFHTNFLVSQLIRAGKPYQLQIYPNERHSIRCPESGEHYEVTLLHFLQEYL
Experimental: DPP 9 activity was determined by the cleavage rate of 7-amino 4-methylcoumarin (AMC) from the substrate H-Gly-Pro-AMC. In brief, the assay was conducted by adding 10 ng of human recombinant Dipeptidyl peptidase 9 enzyme (hrDPP 9, available commercially from R&D systems) in 70 μL of the assay buffer (50 mM TRIS and 5 mM EDTA, pH 7.7) to a 96 well black flat bottom microtitre plate. Test compound was added as 10 μL additions to all wells except blank and total activity wells. After incubation of test substance with enzyme for 30 minutes at room temperature, 10 μL of 100 μM substrate H-Gly-Pro-AMC was added. After mixing, the plate was left for 30 minutes at room temperature. Then the reaction was terminated by addition of 10 μL of 25% Glacial Acetic Acid. Fluorescence was measured using Spectra Max Gemini XS (Molecular Devices, USA) at an excitation filter of 360 nm and emission filter of 460 nm.
Test compound dissolved in DMSO were diluted with assay buffer at different concentrations and tested in duplicates. Percentage inhibition was calculated with respect to total activity. IC50 value was calculated by using Prism Software.

[3] = biological target: T3, human recombinant Dipeptidyl peptidase IV enzyme (hrDPP IV) (Homo sapiens, UniProt P27487); assay: DPP IV assay, cleavage of H-Gly-Pro-AMC by human recombinant DPP-IV enzyme; assay type: biochemical; settings: for inhibition at 0.3 µM: 300 nM compound concentration
T3 construct: purchased R&D systems
T3 sequence (P27487 whole entry): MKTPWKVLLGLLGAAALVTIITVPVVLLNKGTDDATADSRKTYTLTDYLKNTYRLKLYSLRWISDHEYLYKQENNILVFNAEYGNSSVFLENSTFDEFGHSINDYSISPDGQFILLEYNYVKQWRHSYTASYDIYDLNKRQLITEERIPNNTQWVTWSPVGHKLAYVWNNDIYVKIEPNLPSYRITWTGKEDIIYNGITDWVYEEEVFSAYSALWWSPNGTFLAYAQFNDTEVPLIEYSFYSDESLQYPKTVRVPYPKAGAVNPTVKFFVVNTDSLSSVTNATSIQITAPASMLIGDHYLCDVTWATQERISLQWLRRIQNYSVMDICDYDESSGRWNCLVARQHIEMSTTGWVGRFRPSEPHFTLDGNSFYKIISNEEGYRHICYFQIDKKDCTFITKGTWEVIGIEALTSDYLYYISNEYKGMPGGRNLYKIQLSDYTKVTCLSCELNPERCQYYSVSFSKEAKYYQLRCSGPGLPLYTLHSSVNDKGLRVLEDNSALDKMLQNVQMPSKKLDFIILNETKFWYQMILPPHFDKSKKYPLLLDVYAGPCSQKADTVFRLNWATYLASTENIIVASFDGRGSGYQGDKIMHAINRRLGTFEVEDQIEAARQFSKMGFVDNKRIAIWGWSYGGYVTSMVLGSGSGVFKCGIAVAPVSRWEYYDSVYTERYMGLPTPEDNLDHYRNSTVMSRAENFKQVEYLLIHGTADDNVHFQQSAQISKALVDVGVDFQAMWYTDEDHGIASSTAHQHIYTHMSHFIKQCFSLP
How it was run: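 Human recombinant DPP-IV (3 ng) preincubated 60 min at room temperature with compound in 25 mM HEPES, 140 mM NaCl, 1% BSA, pH 7.8, in duplicate. Reaction with H-Gly-Pro-AMC (10 μL of 100 μM) for 20 min, stopped with acetic acid; AMC fluorescence 360/460 nm, IC50 from percent inhibition.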

C57BL/6 mice = assay: Oral glucose tolerance test; assay type: in vivo; settings: compound 10 mg/kg; for Antihyperglycemic activity, reduction in AUC (blood glucose), Time 0.50 hr: glucose 2 g/kg challenge 0.50 hr after compound administration; for Antihyperglycemic activity, reduction in AUC (blood glucose), Time 6.00 hr: glucose 2 g/kg challenge 6.00 hr after compound administration, NA = No activity
Experimental: Effect of compound on glucose tolerance was examined in 7 week old C57BL/6 mice. Animals were kept for 18 h fasting and were challenged with glucose (2 g/kg) 30 min after compound (10 mg/kg) administration. Blood samples for glucose measurement were obtained by tail bleed pre dose and at serial time points after the glucose load (30, 60 and 120 minutes). Blood glucose estimation was done by using ContourTS active strips on glucometer (Bayer). To find the time response on glucose excursion, animals were challenged with glucose at different time point after compound administration (0.5, 2, 4, 6, 8, 12 or 24 hours) at blood glucose was measured at pre (0 minute) and post (30, 60 and 120 minutes) glucose load.
Results of blood glucose were expressed as area under curve (AUC) was calculated using Prism software.

T1 sequence (Q6V1X1 whole entry): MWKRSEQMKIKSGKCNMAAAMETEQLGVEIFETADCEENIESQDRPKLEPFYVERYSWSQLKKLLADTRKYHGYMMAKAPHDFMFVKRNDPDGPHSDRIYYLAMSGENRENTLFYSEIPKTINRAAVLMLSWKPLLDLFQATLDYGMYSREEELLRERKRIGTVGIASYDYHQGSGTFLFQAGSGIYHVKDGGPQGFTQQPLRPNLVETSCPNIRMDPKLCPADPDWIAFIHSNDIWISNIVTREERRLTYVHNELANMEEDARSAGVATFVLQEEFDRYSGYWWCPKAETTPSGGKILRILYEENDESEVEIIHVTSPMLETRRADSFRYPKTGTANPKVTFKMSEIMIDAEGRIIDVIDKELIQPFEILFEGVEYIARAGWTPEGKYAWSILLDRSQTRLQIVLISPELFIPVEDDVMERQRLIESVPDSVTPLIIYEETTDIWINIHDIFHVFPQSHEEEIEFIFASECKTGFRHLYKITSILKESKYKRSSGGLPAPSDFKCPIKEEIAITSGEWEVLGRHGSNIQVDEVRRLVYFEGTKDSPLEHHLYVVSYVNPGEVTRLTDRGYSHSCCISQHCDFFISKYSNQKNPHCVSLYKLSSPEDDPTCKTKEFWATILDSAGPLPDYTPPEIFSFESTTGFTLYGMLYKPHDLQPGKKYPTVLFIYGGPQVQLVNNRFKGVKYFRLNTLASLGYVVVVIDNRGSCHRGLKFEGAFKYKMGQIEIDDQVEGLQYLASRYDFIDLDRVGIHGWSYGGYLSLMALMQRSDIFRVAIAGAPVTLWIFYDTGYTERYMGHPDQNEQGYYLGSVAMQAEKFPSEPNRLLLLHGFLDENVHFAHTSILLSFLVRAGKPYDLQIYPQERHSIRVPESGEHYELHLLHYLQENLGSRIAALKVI

IC50 ([1]; human recombinant DPP 8, read-out: DPP 8 (cell printed in μM in the Selectivity column)) | melting point | IC50 ([2]; human recombinant DPP 9, read-out: DPP 9 (cell printed in μM in the Selectivity column)) | IC50 [3] | Selectivity (Fold) DPP 8 [1] | Selectivity (Fold) DPP 9 [2] | inhibition at 0.3 µM [3] | Structure (SMILES) | Antihyperglycemic activity, reduction in AUC (blood glucose), Time 0.50 hr (C57BL/6 mice) | Antihyperglycemic activity, reduction in AUC (blood glucose), Time 6.00 hr (C57BL/6 mice) | Antihyperglycemic activity, reduction in AUC (blood glucose), Time 4.00 hr (C57BL/6 mice; glucose 2 g/kg challenge 4.00 hr after compound administration) | Antihyperglycemic activity, reduction in AUC (blood glucose), Time 8.00 hr (C57BL/6 mice; glucose 2 g/kg challenge 8.00 hr after compound administration)
> 300 µM | 211 to 216 °C | > 300 µM | 0.059 µM | – | – | – | CC1(NCC(=O)N2C[C@@H](F)C[C@H]2C#N)CCC(CS(=O)(=O)c2ccc(S(C)(=O)=O)cc2)C1(C)C (stereo in doubt) [Example 45, (2S,4S)-4-Fluoro-1-(2-((1S,3R)-1,2,2-trimethyl-3-((4-(methylsulfonyl)phenylsulfonyl)methyl)cyclopentylamino)acetyl)pyrrolidine-2-carbonitrile] | – | – | – | –
– | 132 to 135 °C | – | 0.011 ± 0.00016 µM | >27000 Fold | >5000 Fold | – | CC1(C)[C@H](Cn2cncn2)CC[C@]1(C)NCC(=O)N1C[C@@H](F)C[C@H]1C#N [Example 3, (2S,4S)-1-(2-((1S,3R)-3-((1H-1,2,4-Triazol-1-yl)methyl)-1,2,2-trimethylcyclopentylamino)acetyl)-4-fluoropyrrolidine-2-carbonitrile] | 53.89% | – | – | –
– | 186 to 190 °C | – | 0.00729 µM | – | >1250 Fold | – | CC1(C)[C@H](CN2CCCCS2(=O)=O)CC[C@]1(C)NCC(=O)N1C[C@@H](F)C[C@H]1C#N [Example 30, (2S,4S)-1-(2-((1S,3R)-3-[(1,1-Dioxido-1,2-thiazinan-2-yl)methyl]-1,2,2-trimethylcyclopentylamino)acetyl)-4-fluoropyrrolidine-2-carbonitrile] | – | 30.90% | – | –
– | 131 to 133 °C | – | 0.00439 µM | – | >9000 Fold | – | Cc1nc(C[C@@H]2CC[C@](C)(NCC(=O)N3C[C@@H](F)C[C@H]3C#N)C2(C)C)no1 [Example 55, (2S,4S)-4-Fluoro-1-(2-((1S,3S)-1,2,2-trimethyl-3-((5-methyl-1,2,4-oxadiazol-3-yl)methyl)cyclopentylamino)acetyl)pyrrolidine-2-carbonitrile] | 48.30% | 28.28% | 45.69% | 18.63%
– | 130 to 131 °C | – | 0.0196 µM | – | – | 95.7% | CC1(C)[C@H](Cc2noc(C(F)(F)F)n2)CC[C@]1(C)NCC(=O)N1C[C@@H](F)C[C@H]1C#N [Example 56, (2S,4S)-4-Fluoro-1-(2-((1S,3S)-1,2,2-trimethyl-3-((5-(trifluoromethyl)-1,2,4-oxadiazol-3-yl)methyl)cyclopentylamino)acetyl)pyrrolidine-2-carbonitrile] | – | 7.07% | – | –
– | – | – | 0.0138 µM | – | >7271 Fold | 96.2% | CC(C)c1nc(C[C@@H]2CC[C@](C)(NCC(=O)N3C[C@@H](F)C[C@H]3C#N)C2(C)C)no1 [Example 61, (2S,4S)-4-Fluoro-1-(2-((1S,3S)-3-((5-isopropyl-1,2,4-oxadiazol-3-yl)methyl)-1,2,2-trimethylcyclopentylamino)acetyl)pyrrolidine-2-carbonitrile methanesulfonate] | – | – | – | –
– | 180 to 184 °C | – | 0.0192 µM | – | >1850 Fold | 92.6% | CC1(C)[C@H](Cc2noc(-c3ccncc3)n2)CC[C@]1(C)NCC(=O)N1C[C@@H](F)C[C@H]1C#N [Example 63, (2S,4S)-4-Fluoro-1-(2-((1S,3S)-1,2,2-trimethyl-3-((5-(pyridin-4-yl)-1,2,4-oxadiazol-3-yl)methyl)cyclopentylamino)acetyl)pyrrolidine-2-carbonitrile] | – | – | – | –
– | – | – | 0.0761 µM | >450 Fold | >250 Fold | – | CC1(C)[C@H](NCC(=O)N2C[C@@H](F)C[C@H]2C#N)CC[C@]1(C)c1nc(-c2ccc(F)cc2)no1 [Example 64, (2S,4S)-4-Fluoro-1-(2-((1R,3S)-3-(3-(4-fluorophenyl)-1,2,4-oxadiazol-5-yl)-2,2,3-trimethylcyclopentylamino)acetyl)pyrrolidine-2-carbonitrile] | – | – | – | –
– | 126 to 130 °C | – | 0.0402 µM | >250 Fold | >15 Fold | – | CC1(C)[C@@H](NCC(=O)N2C[C@@H](F)C[C@H]2C#N)CC[C@@]1(C)c1nc(-c2cccnc2)no1 [Example 68, (2S,4S)-4-Fluoro-1-(2-((1S,3R)-2,2,3-trimethyl-3-(3-(pyridin-3-yl)-1,2,4-oxadiazol-5-yl)cyclopentylamino)acetyl)pyrrolidine-2-carbonitrile] | – | – | – | –
– | 70 to 75 °C | – | 0.0186 µM | >1800 Fold | >150 Fold | – | CC1(C)[C@H](NCC(=O)N2C[C@@H](F)C[C@H]2C#N)CC[C@]1(C)c1nc(-c2cccnc2)no1 [Example 69, (2S,4S)-4-Fluoro-1-(2-((1R,3S)-2,2,3-trimethyl-3-(3-(pyridin-3-yl)-1,2,4-oxadiazol-5-yl)cyclopentylamino)acetyl)pyrrolidine-2-carbonitrile] | – | – | – | –
– | 149 to 153 °C | – | 0.0267 µM | >550 Fold | >25 Fold | – | CC1(C)[C@@H](NCC(=O)N2C[C@@H](F)C[C@H]2C#N)CC[C@@]1(C)c1nc(-c2ccncc2)no1 [Example 70, (2S,4S)-4-Fluoro-1-(2-((1S,3R)-2,2,3-trimethyl-3-(3-(pyridin-4-yl)-1,2,4-oxadiazol-5-yl)cyclopentylamino)acetyl)pyrrolidine-2-carbonitrile] | – | – | – | –
– | 65 to 70 °C | – | 0.0323 µM | >1250 Fold | >35 Fold | – | CC1(C)[C@@H](NCC(=O)N2C[C@@H](F)C[C@H]2C#N)CC[C@@]1(C)c1nc(-c2cnccn2)no1 [Example 72, (2S,4S)-4-Fluoro-1-(2-((1S,3R)-2,2,3-trimethyl-3-(3-(pyrazin-2-yl)-1,2,4-oxadiazol-5-yl)cyclopentylamino)acetyl)pyrrolidine-2-carbonitrile] | – | – | – | –
– | 144 to 147 °C | – | 0.041 µM | >2300 Fold | >150 Fold | – | Cc1noc([C@@]2(C)CC[C@@H](NCC(=O)N3C[C@@H](F)C[C@H]3C#N)C2(C)C)n1 [Example 73, (2S,4S)-4-Fluoro-1-(2-((1R,3S)-2,2,3-trimethyl-3-(3-methyl-1,2,4-oxadiazol-5-yl)cyclopentylamino)acetyl)pyrrolidine-2-carbonitrile] | – | – | – | –
– | 137 to 141 °C | – | 0.0547 µM | >900 Fold | >25 Fold | – | Cc1noc([C@]2(C)CC[C@H](NCC(=O)N3C[C@@H](F)C[C@H]3C#N)C2(C)C)n1 [Example 74, (2S,4S)-4-Fluoro-1-(2-((1S,3R)-2,2,3-trimethyl-3-(3-methyl-1,2,4-oxadiazol-5-yl)cyclopentylamino)acetyl)pyrrolidine-2-carbonitrile] | – | – | – | –
